Literature values as cited in patent US12427127B2 (priority 2018, dated 2025).

Question: With `O=NN(CCCl)C(=O)NCCCl` [Carmustine, 1,3-bis (2-chloroethyl)-1-nitrosourea] as the compound, how does the “Solubility in alcohol and lipids” value read?
Answer: highly soluble

Question: And the Solubility in water?
Answer: poorly soluble
